Where two headings read alike, the source gives them in different places.
Experiments:
[1] = Plasma protein binding (RED device); type: in vitro ADME; details: plasma (50% plasma, 50% isotonic buffer), pH 7.4; human plasma
Procedure: Thermodynamic solubility was assessed by dissolving 2 to 3 mg of test compound to equilibrium in 100 mM KPO4-buffer, pH 7.4. The metabolic stability assay was performed in the presence of human and mouse liver microsomes by measurement of test compounds disappearance over time (60 min). The plasma protein binding assay, including stability estimation, was performed using the RED devices (Thermo Fisher Scientific) in the presence of human and mouse plasma. All samples from the in vitro ADME studies were quantified by liquid chromatography-triple quadrupole mass spectrometry (LC–MS/MS). The assays were performed as previously described ([36]) and the details are available in SI Appendix. Cytotoxicity was assessed by incubation of test compounds in the presence of HepG2 cells for 72 h as previously described ([37]).
Plasma protein binding and plasma stability in human and animal plasma. Pooled,
anonymized human plasma was provided by Uppsala Academic Hospital and was collected from
two donors (non-smoking) (citric acid). In brief, 0.2 ml of the plasma (50% plasma, 50% isotonic
buffer) test solution (typically 10 μM final compound concentration) was transferred to the
membrane tube in the RED insert (ThermoFisher Scientific). 0.35 ml isotonic phosphate buffer
pH 7.4 was added to the other side of the membrane. The 96-well base plate was then sealed
with an adhesive plastic film (Scotch Pad) to prevent evaporation. The sample was incubated
with rapid rotation (900 rpm) on a Kisker rotational incubator at 37°C for 4 h to achieve
equilibrium. A stability test of the test solution was prepared (to allow detection of drug
degradation), 100 μL of the plasma test solution (in a plastic vial or on a sealed plate) was
incubated at 37°C for 4 h (or as long as the dialysis time). The plasma test solution was frozen
directly after the administration to prevent any degradation. Prior to LC-MS/MS analysis the
plasma and buffer sample were treated with the addition of Methanol (1:3) containing Warfarin
as internal standard to precipitate proteins. The standard curve was created using the plasma
standard. The plate is then sealed, centrifuged and the supernatant is analysed by liquid
chromatography coupled to triple quadrupole mass spectrometry (LC-MS/MS). […]
Liquid chromatography coupled to triple quadrupole mass spectrometry (LC-MS/MS). The test
compounds were optimized on a Waters Acquity UPLC XEVO TQ-S micro system (Waters Corp.)
operating in multiple reaction monitoring (MRM) mode with positive or negative electrospray
ionization. Compounds were optimized by using the QuanOptimize software (Waters Corp.).
For chromatographic separation, a C18 BEH 1.7 µm column was used, with a general gradient of
1% to 90% of mobile phase B over a total running time of 2 min. Mobile phase A consisted of
5% acetonitrile and 0.1% formic acid in purified water, and mobile phase B of 0.1% formic acid
in 100% acetonitrile. The flow rate was set to 0.5 ml/min and 5 µL of the sample was injected.

[2] = system: Staphylococcus aureus ATCC 29213; test: MIC, S. aureus; type: cell-based
Procedure: Minimum inhibitory concentration (MIC) values were determined according to the Clinical Laboratory Standards Institute guidelines. Frequency of resistance was determined by plating ~5 × 10^8 bacterial cells on agar-solidified media plates containing test compound at concentrations corresponding to four times the measured solid-media MIC of the strains. Colonies were counted after 24 h, restreaked onto media containing the same concentration of compound, and the MIC remeasured against the assayed compound. Genomic DNA from isolated clones was sequenced by paired-end sequencing on an Illumina MiSeq device. Complete experimental details available in SI Appendix.
Cytotoxicity. The cytotoxicity assay was performed in HepG2 cells as previously described(10) […]
Minimum inhibitory concentration (MIC) determination. Broth microdilution and agar dilution MIC assays were conducted according to CLSI guidelines (M07-2012). Appropriate inoculation suspension density was assessed using a Sensititre Nephelometer with a Sensititre 0.5 McFarland Standard. Serum MICs were conducted in 50% heat-inactivated pooled human serum (Sigma-Aldrich). Serum was heated to 56 °C for one hour and then filtered using a 0.2 µm […]
Hemolysis. Hemolysis was conducted as previously described (11).
Frequency of Resistance. Frequency of resistance was assessed by spread plating between […] cfu of a freshly-grown culture of the strain of interest on plates containing a concentration of compound corresponding to 4 times the MIC of the strain (as determined by agar-dilution MIC). […] The frequency of resistance was determined by dividing the number of colonies obtained on the selective plates after 24 hours of growth by the calculated total population plated. […]
Whole-genome sequencing and data analysis. […] Whole-genome sequencing data was analyzed using CLC Genomics Workbench Version 11. To determine the genotype of MDR strains from the ENABLE strain collection, de novo assembled contigs were analyzed using ResFinder (12–14) […]

[3] = ATCC29213, read-out: MIC S. aureus ATCC 29213

## CN(c1ccc(CNCCN)cc1C(=O)Nc1ccc(S(=O)(=O)N2CCN(c3cc(Cl)cc(Cl)c3)CC2)cc1)S(C)(=O)=O [EBL-3025]
[1]
  fraction unbound at 4 h, 10 µM: 0.001

## Cc1cc(C#N)nc(N2CCN(S(=O)(=O)c3ccc(NC(=O)c4ccccc4N(C)S(C)(=O)=O)cc3)CC2)n1 [EBL-3339]
[1]
  fraction unbound at 4 h, 10 µM: 0.0054

## Cc1cc(C#N)nc(N2CCN(S(=O)(=O)c3ccc(NC(=O)c4cc(CNCCCN)ccc4N(C)S(C)(=O)=O)cc3)CC2)n1.Cl.Cl [EBL-3599]
[1]
  fraction unbound at 4 h, 10 µM: 0.02
[2]; ATCC29213, WT, read-out: MIC S. aureus ATCC 29213
  MIC: > 64 µg/mL

## Cc1cc(C#N)nc(N2CCN(S(=O)(=O)c3ccc(NC(=O)c4cc(CN5CC(CN)C5)ccc4N(C)S(C)(=O)=O)cc3)CC2)n1 [EBL-3647]
[1]
  fraction unbound at 4 h, 10 µM: 0.025
[2]; [3]
  MIC: > 64 µg/mL

## CN(c1ccccc1C(=O)Nc1ccc(S(=O)(=O)N2CCN(c3cccc(C(F)(F)F)c3)CC2)cc1)S(C)(=O)=O [JEDI-1444]
[1]
  fraction unbound at 4 h, 10 µM: 0.001
[2]; [3]
  MIC: > 64 µg/mL

Reference: paper PMC11009625, “Antibiotic class with potent in vivo activity targeting lipopolysaccharide synthesis in Gram-negative bacteria” (Proceedings of the National Academy of Sciences of the …, 2024)
